# Reference: patent publication US6362216B1, “Compounds which inhibit tryptase activity” (Array Biopharma Inc., priority 1998, dated 2002)
# Key:
# Format in all cases: biochemical
# Human plasma factor Xa = target: T1, Human plasma factor Xa (Homo sapiens, UniProt P00742); test: Human plasma factor Xa inhibition, N-Benzoyl-Ile-Glu-Gly-Arg-pNA substrate; details: 50 mM Tris-HCl, pH 7.8, 200 mM NaCl, 0.05% BSA
# T1 construct: from tissue; host or cells: human plasma
# Protocol: (§1) Protease inhibition was assayed according to published procedures with minor modifications using various proteases and specific chromogenic peptide p-nitroanilide substrates. Assays were performed in Costar ultra-low cluster 96-well microtiter plate (Costar Corning Corp., Cambridge Mass.). Each protease was incubated with various concentrations of the test compound for 15 min. at 37° C. or as otherwise indicated, in specific assay buffer, and the residual activity was then measured by addition of the substrate. p-Nitroaniline produced by the proteolysis was determined by measuring the change in absorbance at 405 nm on a SpectraMAX 340 plate reader (Molecular devices, Sunnyvale, Calif.).
# (§2) 1. The inhibition constant, Ki is calculated from individual data points using the equation for a tight-binding inhibitor (See Beith, “Proteinase Inhibitors-Proceedings of 2nd Int. Res. Conference”, Fritz, et al. eds., New York, p.4463-4469 (1974)): […]
# (§3) 2. Other inhibition data (Ki>>[E]o), the Ki is calculated from using the equations for a competitive inhibitor: [formula] […]
# Human plasma factor Xa activity was determined by using N-Benzoyl-Ile-Glu-Gly-Arg-pNA in 50 mM Tris-HCl, pH 7.8, 200 mM NaCl, 0.05% BSA (See Lottenberg, et al. Meth. Enzymol. 80, 341-361 (1981)).
# (§4) The inhibition constant (Ki) of the test compounds against each proteolytic enzyme was determined according to Zitnik et al., Biochem. Biophys. […]
# [1] = target: T2, Human Neutrophil elastase (Homo sapiens, UniProt P08246); test: Human neutrophil elastase inhibition, pyroGlu-Pro-Val-pNA substrate; details: 100 mM Tris-HCl, pH 8.3, 0.96 M NaCl, 1% BSA
# T2 construct: from tissue; host or cells: human neutrophils
# T2 sequence (P08246 30-267): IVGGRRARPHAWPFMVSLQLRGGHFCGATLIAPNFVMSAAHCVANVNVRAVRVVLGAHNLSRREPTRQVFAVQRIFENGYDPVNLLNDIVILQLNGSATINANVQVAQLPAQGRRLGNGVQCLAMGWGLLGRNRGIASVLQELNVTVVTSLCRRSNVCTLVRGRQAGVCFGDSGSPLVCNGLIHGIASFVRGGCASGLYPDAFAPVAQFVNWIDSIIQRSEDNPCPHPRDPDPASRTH
# Protocol: as §1, §2, §3
# Human Neutrophil elastase activity was determined by using pyroGlu-Pro-Val-pNA in 100 mM Tris-HCl, pH 8.3, 0.96 M NaCl, 1% BSA (See Kramps, et al. Scand. J. Clin. Lab. Invest. 43, 427-432 (1983)).
# as §4
# [2] = target: Human r-tissue kallikrein (Homo sapiens, UniProt P06870); test: Human r-tissue kallikrein inhibition, DL-Val-Leu-Arg-pNA substrate; details: 50 mM Tris-HCl, pH 7.8, 200 mM NaCl, 0.05% BSA
# Protocol: as §1, §2, §3
# (§5) Human plasma and r-tissue kallikrein activity were determined in 50 mM Tris-HCl1, pH 7.8, 200 mM NaCl, 0.05% BSA by using H-D-Prolyl-Phe-Arg-pNA and DL-Val-Leu-Arg-pNA, respectively (See Lottenberg, et al., Meth. Enzymol. 80, 341-361 (1981)). […]
# [3] = target: T3, Bovine Pancreatic Chymotrypsin (Bos taurus, UniProt P00766); test: Bovine pancreatic chymotrypsin inhibition, N-Suc-Ala-Ala-Pro-Phe-pNA substrate; details: 100 mM Tris-HCl, pH 7.8, 10 mM CaCl2
# T3 construct: from tissue; host or cells: bovine pancreas
# Protocol: as §1, §2, §3
# Bovine Pancreatic Chymotrypsin activity was determined by using N-Suc-Ala-Ala-Pro-Phe-pNA in 100 mM Tris-HCl, pH 7.8, 10 mM CaCl2 (See Delmar, et al., J. Biochem. 85, 157-162 (1979)).
# as §4
# Human plasma kallikrein = target: T4, Human plasma kallikrein (Homo sapiens, UniProt P03952); test: Human plasma kallikrein inhibition, H-D-Prolyl-Phe-Arg-pNA substrate; details: 50 mM Tris-HCl, pH 7.8, 200 mM NaCl, 0.05% BSA
# T4 construct: from tissue; host or cells: human plasma
# Protocol: as §1, §2, §3, §5
# T4 sequence (P03952 391-638 limits assumed): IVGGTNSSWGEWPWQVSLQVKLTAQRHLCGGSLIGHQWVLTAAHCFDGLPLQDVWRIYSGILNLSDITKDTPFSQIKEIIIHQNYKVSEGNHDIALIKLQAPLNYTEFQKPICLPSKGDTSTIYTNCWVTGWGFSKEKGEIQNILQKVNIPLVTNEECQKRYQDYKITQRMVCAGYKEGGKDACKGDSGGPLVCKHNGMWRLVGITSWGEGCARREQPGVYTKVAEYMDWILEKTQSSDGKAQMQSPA
# T4 sequence (P03952 20-390 partner limits assumed): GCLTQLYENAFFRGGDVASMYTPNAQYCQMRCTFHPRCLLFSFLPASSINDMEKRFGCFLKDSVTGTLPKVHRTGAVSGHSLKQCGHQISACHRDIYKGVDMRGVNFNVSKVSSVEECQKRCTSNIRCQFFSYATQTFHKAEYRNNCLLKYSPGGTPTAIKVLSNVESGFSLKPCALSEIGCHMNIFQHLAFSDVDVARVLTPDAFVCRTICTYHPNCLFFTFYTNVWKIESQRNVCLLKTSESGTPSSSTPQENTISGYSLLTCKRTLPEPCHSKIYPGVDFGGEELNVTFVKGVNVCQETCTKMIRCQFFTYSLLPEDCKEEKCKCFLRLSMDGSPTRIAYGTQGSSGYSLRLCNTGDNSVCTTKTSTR
# T1 sequence (P00742 235-488 limits assumed): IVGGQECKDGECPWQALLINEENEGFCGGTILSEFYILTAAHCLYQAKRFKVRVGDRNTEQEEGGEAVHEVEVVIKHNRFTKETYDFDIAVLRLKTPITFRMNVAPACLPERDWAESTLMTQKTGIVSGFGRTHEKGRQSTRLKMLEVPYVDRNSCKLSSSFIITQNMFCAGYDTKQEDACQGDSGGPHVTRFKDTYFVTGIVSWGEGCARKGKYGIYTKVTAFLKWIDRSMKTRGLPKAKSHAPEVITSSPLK
# T1 sequence (P00742 41-179 partner limits assumed): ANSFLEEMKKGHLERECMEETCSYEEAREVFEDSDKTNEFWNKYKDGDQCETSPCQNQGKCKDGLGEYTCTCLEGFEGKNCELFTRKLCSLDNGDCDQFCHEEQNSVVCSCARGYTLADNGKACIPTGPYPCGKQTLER
# Sequence of Human r-tissue kallikrein (P06870 25-262): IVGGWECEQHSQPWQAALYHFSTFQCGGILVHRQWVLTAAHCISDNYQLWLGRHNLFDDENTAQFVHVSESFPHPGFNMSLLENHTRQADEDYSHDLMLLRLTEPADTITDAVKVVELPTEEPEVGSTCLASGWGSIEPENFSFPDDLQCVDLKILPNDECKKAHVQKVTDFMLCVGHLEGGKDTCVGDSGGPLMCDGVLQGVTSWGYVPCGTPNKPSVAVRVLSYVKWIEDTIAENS
compound,measurement,setting,value
Cc1cc2cc(CNC(=O)Cc3cc4cc(C(=N)N)ccc4s3)ccc2[nH]1 [drawing 17 Benzthiophene 5-carboxamidine n=1],Ki,Human plasma factor Xa,17.7 µM
same,Ki,[1],> 100 µM
same,Ki,[2],> 100 µM
same,Ki,[3],> 100 µM
same,Ki,Human plasma kallikrein,1.6 µM
